Data set [1] is described as follows: Stability in an artificial gastric juice (bioautography). Format: in vitro ADME. Conditions: pH about 1.2, 37° C. As to the method: Stability in an artificial gastric juice
(5-methyl-2-oxo-1,3-dioxolen-4-yl)methyl 6-[(hexahydro-1H-azepin-1-yl)methleneamino]penicillanate hydrochloride monohydrate [compound (I).HCl.H2 O]
(§1) (b) Experimental procedure
A solution of 2 mg of compound (I).HCl.H2 O in 0.2 ml of dimethyl sulfoxide was added to 3.8 ml of the artificial gastric juice described in The Pharmacopoeia of Japan, 10th edition (having a pH of about 1.2 and prepared by adding 24.0 ml of 10% HCl to 2.0 g of sodium chloride and adding water to adjust the total amount to 1000 ml). The solution was maintained at 37° C., and bioautographed as shown below after the lapse of 10 minutes, 30 minutes, and 50 minutes, respectively.
(i) The test solution was spotted on a cellulose plate [Cellulose F (Art 5718 supplied by Merck & Co.)] for thin-layer chromatography, and developed with the upper layer of a mixture of n-butanol, ethanol and water in a ratio of 4:1:5. The plate was dried in the air, and a 10% aqueous solution of mouse serum was sprayed onto the plate. […]
(iv) After the cultivation, the position (Rf value) of an inhibitory zone on the plate against E. coli NIHJ was determined. From this Rf value and Rf values of compound (I).HCl.H2 O and Mecillinam (X) separately determined under the same conditions as in (i) to (iii) above, the compound in the test solution was identified. […]

Data set [2] in a line: Stability in an artificial intestinal juice (bioautography). The format is in vitro ADME. Conditions: pH about 6.8, 37° C. As to the method:
Stability in an artificial intestinal juice
as §1
A test solution was prepared in the same way as in Test Example 1, (b), (1) except that the artificial intestinal juice described in The Pharmacopoeia of Japan, 10th edition (having a pH of about 6.8 and prepared by adding water to 250 ml of a 0.2 M aqueous solution of potassium dihydrogen phosphate and 118 ml of a 0.2 N aqueous solution of sodium hydroxide to form a solution having a total volume of 1000 ml) was used instead of the artificial gastric juice.
Performed in the same way as in Test Example 1, (b), (2).

A short description of data set [3]: Stability in mouse serum (bioautography). Format: in vitro ADME. Conditions: 40% mouse serum, 37° C., pH 7.4 phosphate buffer. As to the method: as §1
4 ml of mouse serum was added to 5.6 ml of 0.1 M phosphate buffer (pH 7.4), and then a portion (0.4 ml) of a solution of 20 mg of compound (I).HCl.H2 O in 1 ml of dimethyl sulfoxide was added. The solution was kept at 37° C. for 10 minutes to form a test solution.
The test solution obtained in (1) above was subjected to the same operation as in Example 1, (b), (2).

The subject of another data set is Escherichia coli NIHJ. The experiment in a line: Antibacterial activity in oral administration to mice (inhibitory zone of serum samples). Format: in vivo. Conditions: male ddY mice, dose corresponding to 50 mg/kg of Mecillinam, average of n=4, read-out: Diameter of the inhibitory zone. As to the method:
Antibacterial activity in oral administration to mice
Compound (I).HCl.H2 O and Pivmecillinam.HCl.
as §1
Male ddY mice (6 weeks old, body weight 28±2 g) were used. They were caused to fast for 16 hours before the administration of the test compounds.
An aqueous solution (5 mg/ml) of each of the test compounds was prepared, and orally administered to mice (five per group) in a dose corresponding to 50 mg/kg of Mecillinam.
Blood samples were taken individually from five mice in each group at 30, 60 and 90 minutes after the administration of each compound. The blood samples were immediately centrifuged individually at 3,000 rpm for 15 minutes, and serum samples obtained (each in an amount of 0.2 ml) were combined to give 1 ml of serum for assaying.
(4) Measurement of antibacterial activity
0.2 ml of a suspension of Escherichia coli NIHJ as test organism was added to 5 ml of nutrient agar kept at about 48° C. to give an agar plate. The assaying serum prepared in (3) above was infiltrated into a paper disc (a thick type with a diameter of 8 mm, supplied by Toyo Filter Paper Co., Ltd.), and the paper disc was placed on the agar plate (n=4). It was maintained at 37° C. for 18 hours, and the diameter of the resulting inhibitory zone was measured with respect to each of the serum samples.
The diameter of the inhibitory zone (an average of n=4) measured with respect to each of the serum samples was as shown in Table 1.

The nature of data set [4]: Toxicity test: acute toxicity (LD50) in oral administration. Conditions: mouse, in vivo, male ddY-strain mice, five per group. An excerpt:
The acute toxicity (LD50) of compound (I).HCl.H2 O and Pivmecillinam.HCl in oral administration was examined by using male ddY-strain mice (body weight 22 to 25 g; five per group).

In data set [5] the test system is Gram-negative bacteria, especially Escherichia coli and Klebsiella pneumoniae. The settings on record: compared with Gram-positive bacteria; cited from earlier work.
For data set [6] the following is noted: cited from earlier work.
The conditions of data set [7]: oral, man, 400 mg; cited from earlier work.
The mark [8] stands for this setting: 0.5 h, blood letting time 30 min.
[9] abbreviates: in Mus musculus, blood letting time 90 min.

Here are results for four compounds from patent US4416891A, “Ester of 6-[(hexahydro-1H-azepin-1-yl)methyleneamino]penicillanic acid, and its use as antibacterial agent” (priority 1981, dated 1983).

Counter-ions that a name gives are not always drawn. Like-named read-outs stand apart in the source and are kept apart here.

Broadly, the LD50 is the dose expected to kill half of the subjects tested. Low values mean greater toxicity, high ones lower toxicity. For `Cc1oc(=O)oc1COC(=O)[C@@H]1N2C(=O)[C@@H](N=CN3CCCCCC3)[C@H]2SC1(C)C` [Compound (I).HCl.H2 O, (5-methyl-2-oxo-1,3-dioxolen-4-yl)methyl 6-[(hexahydro-1H-azepin-1-yl)methleneamino]penicillanate hydrochloride monohydrate], the “period of stability in the artificial gastric juice” value in data set [1] is “more than 50 minutes”. Further, the “stability in the artificial intestinal juice” value in data set [2] is listed as “stable in the artificial intestinal juice”. Also, the “transformation to Mecillinam (X) in mouse serum” value in data set [3] was “transformed to Mecillinam (X) in 40% mouse serum within ten minutes at 37 °C”. Also, the zone of inhibition at 50 mg/kg in the data set with Escherichia coli NIHJ (setting [8]) was 23.3 mm; in the data set with Escherichia coli NIHJ (1 h, blood letting time 60 min), 20 mm; in the data set with Escherichia coli NIHJ (setting [9]), 17.2 mm. This compound gave an LD50 in data set [4] of 5210 mg/kg.

In the case of `CC1(C)S[C@@H]2[C@H](N=CN3CCCCCC3)C(=O)N2[C@H]1C(=O)O` [Mecillinam (X), 6-[(hexahydro-1H-azepin-1yl)methyleneamino]penicillanic acid], the antibacterial spectrum result in data set [5] was “stronger activity against Gram-negative bacteria, especially Escherichia coli and Klebsiella pneumoniae, than against Gram-positive bacteria”. For the same compound, in data set [6], the “absorbability or bioavailability in oral administration” value is reported as “low”.

As to `CC(C)(C)C(=O)OCOC(=O)[C@@H]1N2C(=O)[C@@H](N=CN3CCCCCC3)[C@H]2SC1(C)C` [Pivmecillinam (X')], the “urinary excretion after the 6 hour period” value in data set [7] is 45%.

For the compound `CC(C)(C)C(=O)OCOC(=O)[C@@H]1N2C(=O)[C@@H](N=CN3CCCCCC3)[C@H]2SC1(C)C` [Pivmecillinam.HCl], the zone of inhibition at 50 mg/kg with Escherichia coli NIHJ (setting [8]) was determined as 23.2 mm; in the data set on Escherichia coli NIHJ (1 h, blood letting time 60 min), 20.8 mm; in the data set on Escherichia coli NIHJ (setting [9]) it was 18 mm. The compound also had an LD50 in data set [4] of 3840 mg/kg.
